“And” between values parts separate entries of the source, which are not always exact repeats. Identical values can stand only once.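 48-hour exposure; five concentrations; linearly interpolated endpoints. At the GI50, growth is halved. The concentration for full growth arrest is given as TGI.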
Assays:
Assay in all cases: NCI tumour cell line growth inhibition, 48 h
DU-145 prostate = system: DU-145 prostate
HCC-2998 colon = system: HCC-2998 colon
HL-60(TB) leukemia = system: HL-60(TB) leukemia
KM12 colon = system: KM12 colon
M14 melanoma = system: M14 melanoma
NCI-H226 lung = system: NCI-H226 lung
RPMI-8226 leukemia = system: RPMI-8226 leukemia
SK-MEL-28 melanoma = system: SK-MEL-28 melanoma
SW-620 colon = system: SW-620 colon
UO-31 renal = system: UO-31 renal

## O=C(Nc1cccc([N+](=O)[O-])c1)c1cc2ccccc2cc1O
DU-145 prostate
  GI50: 3.09 µM
  TGI: > 49.6 µM
HCC-2998 colon
  GI50: 2.16 µM
  TGI: 6.11 µM
HL-60(TB) leukemia
  GI50: 0.59 µM
  TGI: 3.03 µM
KM12 colon
  GI50: 2.41 µM
  TGI: 6.44 µM
M14 melanoma
  GI50: 1.58 µM
  TGI: 6.68 µM
NCI-H226 lung
  GI50: 1.87 µM
  TGI: 7.43 µM
RPMI-8226 leukemia
  GI50: 0.146 µM
  TGI: 1.06 µM
SK-MEL-28 melanoma
  GI50: 3.23 µM
  TGI: > 100 µM
SW-620 colon
  GI50: 2.72 µM
  TGI: 17 µM
UO-31 renal
  GI50: 1.25 µM
  TGI: 7.46 µM

## Cc1nc2sc(C(=O)Nc3cccc(Cl)c3C)c(N)c2cc1C(C)O (stereo not drawn)
DU-145 prostate
  GI50: 0.329 µM
  TGI: > 86.5 µM
HCC-2998 colon
  GI50: 0.532 µM
  TGI: 26.3 µM
HL-60(TB) leukemia
  GI50: 0.092 µM
KM12 colon
  GI50: 0.175 µM
  TGI: > 41.1 µM
M14 melanoma
  GI50: 0.341 µM
  TGI: > 100 µM
NCI-H226 lung
  GI50: 2.21 µM
  TGI: > 80.8 µM
RPMI-8226 leukemia
  GI50: 0.347 µM
  TGI: > 94 µM
SK-MEL-28 melanoma
  GI50: 5.8 µM
  TGI: > 55.6 µM
SW-620 colon
  GI50: 0.127 µM
  TGI: > 54.3 µM
UO-31 renal
  GI50: 0.61 µM
  TGI: 29.2 µM

## CC(C)(F)C[C@H](N[C@@H](c1ccc(-c2ccc(S(C)(=O)=O)cc2)cc1)C(F)(F)F)C(=O)NC1(C#N)CC1
DU-145 prostate
  GI50: 47.6 µM and 44.4 µM
  TGI: 55 µM and > 100 µM
HCC-2998 colon
  GI50: > 100 µM
  TGI: > 100 µM
HL-60(TB) leukemia
  GI50: > 100 µM
  TGI: > 100 µM
KM12 colon
  GI50: > 100 µM
  TGI: > 100 µM
M14 melanoma
  GI50: > 100 µM
  TGI: > 100 µM
NCI-H226 lung
  GI50: 16.4 µM and 23.6 µM
  TGI: 55 µM and 63.6 µM
RPMI-8226 leukemia
  GI50: > 100 µM
  TGI: > 100 µM
SK-MEL-28 melanoma
  GI50: 49.1 µM and 36.3 µM
  TGI: 55 µM and > 100 µM
SW-620 colon
  GI50: > 100 µM
  TGI: > 100 µM
UO-31 renal
  GI50: 49.3 µM and 23.2 µM
  TGI: 55 µM and > 100 µM

## NC(=S)N/N=C\c1nccc2c(C(F)(F)C(F)(F)C(F)(F)F)cccc12
DU-145 prostate
  GI50: 0.11 µM
  TGI: 2.92 µM
HCC-2998 colon
  GI50: 0.229 µM
  TGI: 4.48 µM
HL-60(TB) leukemia
  GI50: 0.0649 µM
  TGI: 0.665 µM
KM12 colon
  GI50: 0.0825 µM
  TGI: 8.05 µM
M14 melanoma
  GI50: 0.0662 µM
  TGI: 0.589 µM
NCI-H226 lung
  GI50: 0.162 µM
  TGI: 1.12 µM
RPMI-8226 leukemia
  GI50: 0.264 µM
SK-MEL-28 melanoma
  GI50: 0.25 µM
  TGI: 3.26 µM
SW-620 colon
  GI50: 0.0538 µM
  TGI: 24.3 µM
UO-31 renal
  GI50: 0.09 µM
  TGI: 0.892 µM

## O=C(Nc1ccccc1C(=O)Nc1nccs1)c1ccccc1
DU-145 prostate
  TGI: > 100 µM
HCC-2998 colon
  TGI: > 100 µM
HL-60(TB) leukemia
  TGI: > 100 µM
KM12 colon
  TGI: > 100 µM
M14 melanoma
  TGI: > 100 µM
NCI-H226 lung
  TGI: > 100 µM
RPMI-8226 leukemia
  TGI: > 100 µM
SK-MEL-28 melanoma
  TGI: > 100 µM
SW-620 colon
  TGI: > 100 µM
UO-31 renal
  TGI: > 100 µM

## COc1ccc(S(=O)(=O)n2c3ccccc3n3ncc(-c4nnc(C)o4)c23)cc1
DU-145 prostate
  GI50: 0.916 µM
  TGI: > 75.3 µM
HCC-2998 colon
  GI50: 1.38 µM
  TGI: 16.8 µM
HL-60(TB) leukemia
  GI50: 0.273 µM
  TGI: 0.841 µM
KM12 colon
  GI50: 0.465 µM
  TGI: 19.9 µM
M14 melanoma
  GI50: 0.373 µM
  TGI: 18.7 µM
NCI-H226 lung
  GI50: 10.8 µM
  TGI: > 69.2 µM
RPMI-8226 leukemia
  GI50: 0.527 µM
  TGI: 24.7 µM
SK-MEL-28 melanoma
  GI50: 11.3 µM
  TGI: 34.8 µM
SW-620 colon
  GI50: 0.394 µM
  TGI: > 100 µM
UO-31 renal
  GI50: 0.474 µM
  TGI: 21.7 µM

## S=C(Nc1ccccc1)N1CCn2c1nsc2=Nc1ccccc1
DU-145 prostate
  GI50: > 100 µM
  TGI: > 100 µM
HCC-2998 colon
  GI50: > 100 µM
  TGI: > 100 µM
HL-60(TB) leukemia
  GI50: > 100 µM
  TGI: > 100 µM
KM12 colon
  GI50: > 100 µM
  TGI: > 100 µM
M14 melanoma
  GI50: > 100 µM
  TGI: > 100 µM
NCI-H226 lung
  GI50: 61.6 µM
  TGI: > 100 µM
RPMI-8226 leukemia
  GI50: 40.9 µM
  TGI: > 100 µM
SK-MEL-28 melanoma
  GI50: > 100 µM
  TGI: > 100 µM
SW-620 colon
  GI50: 48.4 µM
  TGI: > 100 µM
UO-31 renal
  GI50: > 100 µM
  TGI: > 100 µM

## FC(F)(F)c1cc(NC2=NCCN=C(Nc3cc(C(F)(F)F)cc(C(F)(F)F)c3)SS2)cc(C(F)(F)F)c1
DU-145 prostate
  GI50: 6.24 µM
  TGI: 18.9 µM
HCC-2998 colon
  GI50: 6.15 µM
  TGI: 19.3 µM
HL-60(TB) leukemia
  GI50: 3.27 µM
  TGI: 15.8 µM
KM12 colon
  GI50: 3.72 µM
  TGI: 12.3 µM
M14 melanoma
  GI50: 6.87 µM
  TGI: 26.6 µM
NCI-H226 lung
  GI50: 3.07 µM
  TGI: 16.2 µM
RPMI-8226 leukemia
  GI50: 2.58 µM
  TGI: 8.8 µM
SK-MEL-28 melanoma
  GI50: 6.07 µM
  TGI: 19.4 µM
SW-620 colon
  GI50: 3.71 µM
  TGI: 14.8 µM
UO-31 renal
  GI50: 2.66 µM
  TGI: 11.9 µM

## CCN(CC)CCOc1nc2cc(OC)c(OC)cc2c2c1-c1ccc(OC)cc1C2=O
DU-145 prostate
  GI50: 5.56 µM
  TGI: 18.3 µM
HCC-2998 colon
  GI50: 14.3 µM
  TGI: 27.6 µM
HL-60(TB) leukemia
  GI50: 13.4 µM
  TGI: 34.6 µM
KM12 colon
  GI50: 1.51 µM
  TGI: 2.87 µM
M14 melanoma
  GI50: 11.7 µM
  TGI: 24 µM
NCI-H226 lung
  GI50: 13.6 µM
  TGI: 35.1 µM
RPMI-8226 leukemia
  GI50: 3.26 µM
  TGI: 19.6 µM
SK-MEL-28 melanoma
  GI50: 21.5 µM
  TGI: 36.4 µM
SW-620 colon
  GI50: 1.21 µM
  TGI: 2.68 µM
UO-31 renal
  GI50: 1.77 µM
  TGI: 14.2 µM

## Cc1ccc(S(=O)(=O)c2ccsc2N)cc1
DU-145 prostate
  GI50: > 100 µM
  TGI: > 100 µM
HCC-2998 colon
  GI50: > 100 µM
  TGI: > 100 µM
HL-60(TB) leukemia
  GI50: > 100 µM
  TGI: > 100 µM
KM12 colon
  GI50: > 100 µM
  TGI: > 100 µM
M14 melanoma
  GI50: > 100 µM
  TGI: > 100 µM
NCI-H226 lung
  GI50: 45.9 µM
  TGI: > 100 µM
RPMI-8226 leukemia
  GI50: 95.4 µM
  TGI: > 100 µM
SK-MEL-28 melanoma
  GI50: > 100 µM
  TGI: > 100 µM
SW-620 colon
  GI50: > 100 µM
  TGI: > 100 µM
UO-31 renal
  GI50: 47.2 µM
  TGI: > 100 µM

## CS(=O)(=O)Nc1cc(-c2ccc3ncnc(Nc4cccc(Cl)c4F)c3c2)cnc1Cl
DU-145 prostate
  GI50: 3.69 µM
  TGI: 29 µM
HCC-2998 colon
  GI50: 1.66 µM
  TGI: 5.01 µM
HL-60(TB) leukemia
  GI50: 3.19 µM
  TGI: 40.2 µM
KM12 colon
  GI50: 4.32 µM
  TGI: 16.5 µM
M14 melanoma
  GI50: 3.17 µM
  TGI: 17 µM
NCI-H226 lung
  GI50: 2.57 µM
  TGI: 18.2 µM
RPMI-8226 leukemia
  GI50: 2.21 µM
  TGI: 6.11 µM
SK-MEL-28 melanoma
  GI50: 1.59 µM
  TGI: 9.27 µM
SW-620 colon
  GI50: 3.31 µM
  TGI: 37.7 µM
UO-31 renal
  GI50: 1.24 µM
  TGI: 4.3 µM

## C#CCOc1cccc(Nc2ncc3ncn(C4CCN(C(=O)CCl)C4)c3n2)c1 (stereo not drawn)
DU-145 prostate
  GI50: > 62.5 µM
  TGI: > 62.5 µM
HCC-2998 colon
  GI50: > 62.5 µM
  TGI: > 62.5 µM
HL-60(TB) leukemia
  GI50: 22.7 µM
  TGI: > 62.5 µM
KM12 colon
  GI50: > 62.5 µM
  TGI: > 62.5 µM
M14 melanoma
  GI50: > 62.5 µM
  TGI: > 62.5 µM
NCI-H226 lung
  GI50: > 62.5 µM
  TGI: > 62.5 µM
RPMI-8226 leukemia
  GI50: > 62.5 µM
  TGI: > 62.5 µM
SK-MEL-28 melanoma
  GI50: > 62.5 µM
  TGI: > 62.5 µM
SW-620 colon
  GI50: 15.4 µM
  TGI: > 62.5 µM
UO-31 renal
  GI50: 37.4 µM
  TGI: > 62.5 µM

## O=C1NC(O)CCN1C1CC(O)C(CO)O1 (stereo not drawn)
DU-145 prostate
  TGI: > 100 µM
HCC-2998 colon
  TGI: > 100 µM
HL-60(TB) leukemia
  TGI: > 100 µM
KM12 colon
  TGI: > 100 µM
M14 melanoma
  TGI: > 100 µM
NCI-H226 lung
  TGI: > 100 µM
RPMI-8226 leukemia
  TGI: > 100 µM
SK-MEL-28 melanoma
  TGI: > 100 µM
SW-620 colon
  TGI: > 100 µM
UO-31 renal
  TGI: > 100 µM

## O=c1[nH]cnc2nc(-c3ccc(N(CCCl)CCCl)cc3)[nH]c12
DU-145 prostate
  GI50: 15.9 µM
  TGI: > 100 µM
HCC-2998 colon
  GI50: 4.76 µM
  TGI: > 100 µM
HL-60(TB) leukemia
  GI50: > 100 µM
  TGI: > 100 µM
KM12 colon
  GI50: 70.3 µM
  TGI: > 100 µM
M14 melanoma
  GI50: 4.97 µM
  TGI: > 100 µM
NCI-H226 lung
  GI50: 7.13 µM
  TGI: 80.6 µM
RPMI-8226 leukemia
  GI50: > 100 µM
  TGI: > 100 µM
SK-MEL-28 melanoma
  GI50: > 100 µM
  TGI: > 100 µM
SW-620 colon
  GI50: 6.46 µM
  TGI: > 100 µM
UO-31 renal
  GI50: 10.4 µM
  TGI: 38.3 µM

— PubChem BioAssay (NCI)
